SMILES strings stand for the structures. Structures can show the parent of a compound that is named as a salt.

A short description of this data set: Dissolution studies / drug release. In kind it is physicochemical. As to conditions: levels of hydrophobic melt binder of up to 20%.

As to `CN(C)CCC(c1ccc(Cl)cc1)c1ccccn1` (stereo not shown) [chlorpheniramine maleate], the drug release entry is recorded as “do not delay drug release”.

The values are drawn from patent US20070154549A1, “Multiparticulate formulations for oral delivery” (VECTURA LTD, priority 2003, published 2007).
